Measurements from article PMC6414696 (mBio, 2019).
In brackets after ≈: the same amount, converted by molar mass.

How the values were obtained:
OXA 24/40 = conditions: cited from earlier work
[1] = test system: A. baumannii clinical isolates; experiment: Broth microdilution MIC susceptibility testing against carbapenems; format: cell-based, Acinetobacter baumannii

Which IC50 (OXA 24/40) does the source give for `CC1=C[C@@H](C(N)=O)N2C[C@@H]1N(OS(=O)(=O)O)C2=O` [compound 3] here?
Its IC50 is 360 nM.

For `C[C@@H](O)[C@H]1C(=O)N2C(C(=O)O)=C(S[C@@H]3CN[C@H](C(=O)N(C)C)C3)[C@H](C)[C@H]12` [Meropenem], which “isolates resistant (R ≥ 8 according to CLSI)” value ([1]; 72 WRAMC isolates (seventeen of 72)) is on record?
The value was 24%.

What about the MIC50 ([1]; Acinetobacter baumannii) of the same molecule?
Its MIC50 is 1 µg/mL (≈ 2.61 µM).

What about the MIC90 ([1]; Acinetobacter baumannii) of the same molecule?
Its MIC90 is 32 µg/mL (≈ 83.4 µM).

And the MIC ([1]; Acinetobacter baumannii, strain AB001)?
The MIC was 1 µg/mL (≈ 2.61 µM).

What about the MIC ([1]; Acinetobacter baumannii, strain AB002) of the same molecule?
Its MIC is 2 µg/mL (≈ 5.22 µM).

And the MIC ([1]; Acinetobacter baumannii, strain AB003)?
Its MIC is 2 µg/mL (≈ 5.22 µM).

What about the MIC ([1]; Acinetobacter baumannii, strain AB004) of the same molecule?
Its MIC is 2 µg/mL (≈ 5.22 µM).

What about the MIC ([1]; Acinetobacter baumannii, strain AB005) of the same molecule?
The MIC was 1 µg/mL (≈ 2.61 µM).

And the MIC ([1]; Acinetobacter baumannii, strain AB006)?
The MIC was 4 µg/mL (≈ 10.4 µM).

And the MIC ([1]; Acinetobacter baumannii, strain AB007)?
Its MIC is 0.5 µg/mL (≈ 1.3 µM).

And the MIC ([1]; Acinetobacter baumannii, strain AB008)?
The MIC was 1 µg/mL (≈ 2.61 µM).

And the MIC ([1]; Acinetobacter baumannii, strain AB009)?
Its MIC is 1 µg/mL (≈ 2.61 µM).

And the MIC ([1]; Acinetobacter baumannii, strain AB010)?
The MIC was 1 µg/mL (≈ 2.61 µM).

And the MIC ([1]; Acinetobacter baumannii, strain AB011)?
The MIC was 1 µg/mL (≈ 2.61 µM).

What about the MIC ([1]; Acinetobacter baumannii, strain AB012) of the same molecule?
Its MIC is 1 µg/mL (≈ 2.61 µM).

And the MIC ([1]; Acinetobacter baumannii, strain AB013)?
Its MIC is 1 µg/mL (≈ 2.61 µM).

What about the MIC ([1]; Acinetobacter baumannii, strain AB014) of the same molecule?
The MIC was 1 µg/mL (≈ 2.61 µM).

What about the MIC ([1]; Acinetobacter baumannii, strain AB015) of the same molecule?
The MIC was 2 µg/mL (≈ 5.22 µM).

And the MIC ([1]; Acinetobacter baumannii, strain AB016)?
The MIC was 0.5 µg/mL (≈ 1.3 µM).

And the MIC ([1]; Acinetobacter baumannii, strain AB017)?
Its MIC is 0.5 µg/mL (≈ 1.3 µM).

What about the MIC ([1]; Acinetobacter baumannii, strain AB018) of the same molecule?
Its MIC is 0.5 µg/mL (≈ 1.3 µM).

And the MIC ([1]; Acinetobacter baumannii, strain AB019)?
The MIC was 0.25 µg/mL (≈ 0.652 µM).

And the MIC ([1]; Acinetobacter baumannii, strain AB020)?
The MIC was 0.5 µg/mL (≈ 1.3 µM).

What about the MIC ([1]; Acinetobacter baumannii, strain AB021) of the same molecule?
The MIC was 0.5 µg/mL (≈ 1.3 µM).

What about the MIC ([1]; Acinetobacter baumannii, strain AB022) of the same molecule?
Its MIC is 0.5 µg/mL (≈ 1.3 µM).

What about the MIC ([1]; Acinetobacter baumannii, strain AB023) of the same molecule?
The MIC was 2 µg/mL (≈ 5.22 µM).

What about the MIC ([1]; Acinetobacter baumannii, strain AB024) of the same molecule?
The MIC was 0.5 µg/mL (≈ 1.3 µM).

What about the MIC ([1]; Acinetobacter baumannii, strain AB025) of the same molecule?
Its MIC is 0.5 µg/mL (≈ 1.3 µM).

What about the MIC ([1]; Acinetobacter baumannii, strain AB026) of the same molecule?
Its MIC is 1 µg/mL (≈ 2.61 µM).

And the MIC ([1]; Acinetobacter baumannii, strain AB027)?
The MIC was 0.5 µg/mL (≈ 1.3 µM).

And the MIC ([1]; Acinetobacter baumannii, strain AB028)?
The MIC was 0.5 µg/mL (≈ 1.3 µM).

What about the MIC ([1]; Acinetobacter baumannii, strain AB029) of the same molecule?
The MIC was 0.5 µg/mL (≈ 1.3 µM).

What about the MIC ([1]; Acinetobacter baumannii, strain AB030) of the same molecule?
The MIC was 1 µg/mL (≈ 2.61 µM).

And the MIC ([1]; Acinetobacter baumannii, strain AB031)?
Its MIC is 1 µg/mL (≈ 2.61 µM).

And the MIC ([1]; Acinetobacter baumannii, strain AB032)?
The MIC was 0.5 µg/mL (≈ 1.3 µM).

And the MIC ([1]; Acinetobacter baumannii, strain AB033)?
The MIC was 1 µg/mL (≈ 2.61 µM).

What about the MIC ([1]; Acinetobacter baumannii, strain AB034) of the same molecule?
The MIC was 1 µg/mL (≈ 2.61 µM).

And the MIC ([1]; Acinetobacter baumannii, strain AB035)?
The MIC was 0.25 µg/mL (≈ 0.652 µM).

What about the MIC ([1]; Acinetobacter baumannii, strain AB036) of the same molecule?
Its MIC is 0.5 µg/mL (≈ 1.3 µM).

And the MIC ([1]; Acinetobacter baumannii, strain AB037)?
The MIC was 0.25 µg/mL (≈ 0.652 µM).

And the MIC ([1]; Acinetobacter baumannii, strain AB038)?
The MIC was 1 µg/mL (≈ 2.61 µM).

What about the MIC ([1]; Acinetobacter baumannii, strain AB039) of the same molecule?
Its MIC is 1 µg/mL (≈ 2.61 µM).

And the MIC ([1]; Acinetobacter baumannii, strain AB040)?
Its MIC is 0.5 µg/mL (≈ 1.3 µM).

And the MIC ([1]; Acinetobacter baumannii, strain AB041)?
Its MIC is 0.5 µg/mL (≈ 1.3 µM).

And the MIC ([1]; Acinetobacter baumannii, strain AB042)?
The MIC was 4 µg/mL (≈ 10.4 µM).

And the MIC ([1]; Acinetobacter baumannii, strain AB043)?
Its MIC is 16 µg/mL (≈ 41.7 µM).

And the MIC ([1]; Acinetobacter baumannii, strain AB044)?
Its MIC is 8 µg/mL (≈ 20.9 µM).

And the MIC ([1]; Acinetobacter baumannii, strain AB045)?
The MIC was 8 µg/mL (≈ 20.9 µM).

What about the MIC ([1]; Acinetobacter baumannii, strain AB046) of the same molecule?
The MIC was 16 µg/mL (≈ 41.7 µM).

And the MIC ([1]; Acinetobacter baumannii, strain AB047)?
Its MIC is 8 µg/mL (≈ 20.9 µM).

What about the MIC ([1]; Acinetobacter baumannii, strain AB048) of the same molecule?
The MIC was 16 µg/mL (≈ 41.7 µM).

And the MIC ([1]; Acinetobacter baumannii, strain AB049)?
Its MIC is 32 µg/mL (≈ 83.4 µM).

And the MIC ([1]; Acinetobacter baumannii, strain AB050)?
The MIC was 16 µg/mL (≈ 41.7 µM).

And the MIC ([1]; Acinetobacter baumannii, strain AB051)?
The MIC was 1 µg/mL (≈ 2.61 µM).

What about the MIC ([1]; Acinetobacter baumannii, strain AB052) of the same molecule?
Its MIC is 2 µg/mL (≈ 5.22 µM).

And the MIC ([1]; Acinetobacter baumannii, strain AB053)?
The MIC was 2 µg/mL (≈ 5.22 µM).

And the MIC ([1]; Acinetobacter baumannii, strain AB054)?
The MIC was 32 µg/mL (≈ 83.4 µM).

What about the MIC ([1]; Acinetobacter baumannii, strain AB055) of the same molecule?
The MIC was 8 µg/mL (≈ 20.9 µM).

What about the MIC ([1]; Acinetobacter baumannii, strain AB056) of the same molecule?
The MIC was 16 µg/mL (≈ 41.7 µM).

What about the MIC ([1]; Acinetobacter baumannii, strain AB057) of the same molecule?
The MIC was 32 µg/mL (≈ 83.4 µM).

And the MIC ([1]; Acinetobacter baumannii, strain AB058)?
Its MIC is 2 µg/mL (≈ 5.22 µM).

What about the MIC ([1]; Acinetobacter baumannii, strain AB059) of the same molecule?
The MIC was 32 µg/mL (≈ 83.4 µM).

What about the MIC ([1]; Acinetobacter baumannii, strain AB060) of the same molecule?
The MIC was 32 µg/mL (≈ 83.4 µM).

What about the MIC ([1]; Acinetobacter baumannii, strain AB061) of the same molecule?
The MIC was 32 µg/mL (≈ 83.4 µM).

What about the MIC ([1]; Acinetobacter baumannii, strain AB062) of the same molecule?
Its MIC is 64 µg/mL (≈ 167 µM).

What about the MIC ([1]; Acinetobacter baumannii, strain AB063) of the same molecule?
Its MIC is 0.5 µg/mL (≈ 1.3 µM).

What about the MIC ([1]; Acinetobacter baumannii, strain AB064) of the same molecule?
Its MIC is 0.25 µg/mL (≈ 0.652 µM).

And the MIC ([1]; Acinetobacter baumannii, strain AB065)?
The MIC was 32 µg/mL (≈ 83.4 µM).

And the MIC ([1]; Acinetobacter baumannii, strain AB066)?
The MIC was 0.25 µg/mL (≈ 0.652 µM).

What about the MIC ([1]; Acinetobacter baumannii, strain AB067) of the same molecule?
The MIC was 0.25 µg/mL (≈ 0.652 µM).

What about the MIC ([1]; Acinetobacter baumannii, strain AB068) of the same molecule?
The MIC was 1 µg/mL (≈ 2.61 µM).

And the MIC ([1]; Acinetobacter baumannii, strain AB069)?
The MIC was 1 µg/mL (≈ 2.61 µM).

And the MIC ([1]; Acinetobacter baumannii, strain AB070)?
The MIC was 2 µg/mL (≈ 5.22 µM).

And the MIC ([1]; Acinetobacter baumannii, strain AB071)?
Its MIC is 0.5 µg/mL (≈ 1.3 µM).

What about the MIC ([1]; Acinetobacter baumannii, strain AB072) of the same molecule?
The MIC was 0.25 µg/mL (≈ 0.652 µM).

What about the MIC ([1]; Acinetobacter baumannii, strain CCF 1MR) of the same molecule?
The MIC was greater than 8 µg/mL.

What about the MIC ([1]; Acinetobacter baumannii, strain CCF 2MR) of the same molecule?
Its MIC is greater than 8 µg/mL.

And the MIC ([1]; Acinetobacter baumannii, strain CCF 3MR)?
The MIC was greater than 8 µg/mL.

What about the MIC ([1]; Acinetobacter baumannii, strain CCF 4MR) of the same molecule?
The MIC was greater than 8 µg/mL.

And the MIC ([1]; Acinetobacter baumannii, strain CCF 5MR)?
Its MIC is greater than 8 µg/mL.

What about the MIC ([1]; Acinetobacter baumannii, strain CCF 6MR) of the same molecule?
The MIC was greater than 8 µg/mL.

What about the MIC ([1]; Acinetobacter baumannii, strain CCF 7MR) of the same molecule?
The MIC was greater than 8 µg/mL.

What about the MIC ([1]; Acinetobacter baumannii, strain CCF 8MR) of the same molecule?
Its MIC is greater than 8 µg/mL.

And the MIC ([1]; Acinetobacter baumannii, strain UH AB202)?
Its MIC is greater than 8 µg/mL.

What about the MIC ([1]; Acinetobacter baumannii, strain UH AB461) of the same molecule?
The MIC was greater than 8 µg/mL.

And the MIC ([1]; Acinetobacter baumannii, strain UH AB477)?
The MIC was greater than 8 µg/mL.

And the MIC ([1]; Acinetobacter baumannii, strain UH AB487)?
The MIC was greater than 8 µg/mL.

What about the MIC ([1]; Acinetobacter baumannii, strain UH AB489) of the same molecule?
The MIC was greater than 8 µg/mL.

And the MIC ([1]; Acinetobacter baumannii, strain UH AB490)?
Its MIC is greater than 8 µg/mL.

And the MIC ([1]; Acinetobacter baumannii, strain UH AB491)?
The MIC was greater than 8 µg/mL.

And the MIC ([1]; Acinetobacter baumannii, strain UH AB636)?
The MIC was greater than 8 µg/mL.

What about the MIC ([1]; Acinetobacter baumannii, strain UH AB660) of the same molecule?
Its MIC is greater than 8 µg/mL.

And the MIC ([1]; Acinetobacter baumannii, strain UH AB667)?
Its MIC is greater than 8 µg/mL.

And the MIC ([1]; Acinetobacter baumannii, strain VA-432)?
Its MIC is 64 µg/mL (≈ 167 µM).

What about the MIC ([1]; Acinetobacter baumannii, strain VA-433) of the same molecule?
Its MIC is 32 µg/mL (≈ 83.4 µM).

And the MIC ([1]; Acinetobacter baumannii, strain VA-434)?
The MIC was 64 µg/mL (≈ 167 µM).

And the MIC ([1]; Acinetobacter baumannii, strain VA-435)?
Its MIC is 64 µg/mL (≈ 167 µM).

And the MIC ([1]; Acinetobacter baumannii, strain VA-436)?
Its MIC is 64 µg/mL (≈ 167 µM).

And the MIC ([1]; Acinetobacter baumannii, strain VA-437)?
The MIC was 32 µg/mL (≈ 83.4 µM).

What about the MIC ([1]; Acinetobacter baumannii, strain VA-438) of the same molecule?
The MIC was 32 µg/mL (≈ 83.4 µM).

And the MIC ([1]; Acinetobacter baumannii, strain VA-505)?
Its MIC is 32 µg/mL (≈ 83.4 µM).
